target: HSP90 (Homo sapiens, UniProt P07900); test: HSP90 inhibition (HSP90 IC50); format: biochemical

| SMILES | IC50 |
| --- | --- |
| COc1cccc(C(=O)NC2CC3CCC(C2)N3c2ccc(C(=O)NC(C)c3ccc(Br)cc3F)cn2)c1C (stereo not drawn) [N-[1-(4-bromo-2-fluorophenyl)ethyl]-6-[3-endo-({[2-methyl-3-(methyloxy)phenyl]carbonyl}amino)-8-azabicyclo[3.2.1]oct-8-yl]pyridine-3-carboxamide] | 2000 to 10000 nM |
| COc1cccc(C(=O)N[C@H]2C[C@H]3CC[C@@H](C2)N3c2ccc(C(=O)NCc3ccc(OC(F)(F)F)cc3)cn2)c1C [6-[3-endo-({[2-methyl-3-(methyloxy)phenyl]carbonyl}amino)-8-azabicyclo[3.2.1]oct-8-yl]-N-({4-[(trifluoromethyl)oxy]phenyl}methyl) pyridine-3-carboxamide] | 2000 to 10000 nM |
| COc1cccc(C(=O)N[C@H]2C[C@H]3CC[C@@H](C2)N3c2ccc(C(=O)NCc3c(F)cccc3OC)cn2)c1C [N-{[2-fluoro-6-(methyloxy)phenyl]methyl}-6-[3-endo-({[2-methyl-3-(methyloxy)phenyl]carbonyl}amino)-8-azabicyclo[3.2.1]oct-8-yl]pyridine-3-carboxamide] | 1000 to 2000 nM |
| NC(=O)c1ccc(C(=O)NC2CC3CCC(C2)N3c2ccc(C(=O)CC(O)c3ccccc3)cn2)cc1NCC1CC1 (stereo not drawn) [2-[(cyclopropylmethyl)amino]-N4-{8-[5-(3-hydroxy-3-phenylpropanoyl)pyridin-2-yl]-8-azabicyclo[3.2.1]oct-3-endo-yl}benzene-1,4-dicarboxamide] | 500 to 999 nM |
| COc1cccc(C(=O)N[C@H]2C[C@H]3CC[C@@H](C2)N3c2ccc(C(=O)Nc3ccc(N4CCN(C)CC4)cc3)cn2)c1C [6-[3-endo-({[2-methyl-3-(methyloxy)phenyl]carbonyl}amino)-8-azabicyclo[3.2.1]oct-8-yl]-N-[4-(4-methylpiperazin-1-yl)phenyl]pyridine-3-carboxamide] | < 500 nM |
| COc1cccc(C(=O)N[C@H]2C[C@H]3CC[C@@H](C2)N3c2ccc(C(=O)NCc3cc(F)ccc3F)cn2)c1C [N-[(2,5-difluorophenyl)methyl]-6-[3-endo-({[2-methyl-3-(methyloxy)phenyl]carbonyl}amino)-8-azabicyclo[3.2.1]oct-8-yl]pyridine-3-carboxamide] | 500 to 999 nM |
| COc1cccc(C(=O)N[C@H]2C[C@H]3CC[C@@H](C2)N3c2ccc(C(=O)NCc3ccc(Cl)nc3)cn2)c1C [N-[(6-chloropyridin-3-yl)methyl]-6-[3-endo-({[2-methyl-3-(methyloxy)phenyl]carbonyl}amino)-8-azabicycio[3.2.1]oct-8-yl]pyridine-3-carboxamide] | < 500 nM |
| COc1cccc(C(=O)NC2CC3CCC(C2)N3c2ccc(C(=O)N[C@H]3CCC[C@@H]3OCc3ccccc3)cn2)c1C (stereo partly drawn) [6-[3-endo-({[2-methyl-3-(methyloxy)phenyl]carbonyl}amino)-8-azabicyclo[3.2.1]oct-8-yl]-N-{(1S,2S)-2-[(phenylmethyl)oxy]cyclopentyl}pyridine-3-carboxamide] | 2000 to 10000 nM |
| COc1cccc(C(=O)N[C@H]2C[C@H]3CC[C@@H](C2)N3c2ccc(C(=O)NCc3ccccc3)cn2)c1CCCO [6-[3-endo-({[2-(3-hydroxypropyl)-3-(methyloxy)phenyl]carbonyl}amino)-8-azabicyclo[3.2.1]oct-8-yl]-N-(phenylmethyl)pyridine-3-carboxamide] | < 500 nM |
| COc1cccc(C(=O)N[C@H]2C[C@H]3CC[C@@H](C2)N3c2ccc(C(=O)NCCSC)cn2)c1C [6-[3-endo-({[2-methyl-3-(methyloxy)phenyl]carbonyl}amino)-8-azabicyclo[3.2.1]oct-8-yl]-N-[2-(methylthio)ethyl]pyridine-3-carboxamide] | 1000 to 2000 nM |
| CC(=O)c1ccc(N2[C@@H]3CC[C@H]2C[C@@H](NC(=O)c2ccc(C(N)=O)c(Nc4cccc(OCCN(C)C)c4)c2)C3)nc1 [N4-[8-(5-acetylpyridin-2-yl)-8-azabicyclo[3.2.1]oct-3-endo-yl]-2-[(3-{[2-(dimethylamino)ethyl]oxy}phenyl)amino] benzene-1,4-dicarboxamide] | < 500 nM |
| COc1cccc(C(=O)N[C@H]2C[C@H]3CC[C@@H](C2)N3c2ccc(C(=O)NCc3ccccc3)cn2)c1Br [6-[3-endo-({[2-bromo-3-(methyloxy)phenyl]carbonyl}amino)-8-azabicyclo[3.2.1]oct-8-yl]-N-(phenylmethyl)pyridine-3-carboxamide] | 1000 to 2000 nM |
| COc1cccc(C(=O)N[C@H]2C[C@H]3CC[C@@H](C2)N3c2ccc(C(=O)NCc3cc(F)c(F)cc3F)cn2)c1C [6-[3-endo-({[2-methyl-3-(methyloxy)phenyl]carbonyl}amino)-8-azabicyclo[3.2.1]oct-8-yl]-N-[(2,4,5-trifluorophenyl)methyl]pyridine-3-carboxamide] | 500 to 999 nM |

Results, then the compound that gave them:

| IC50 | SMILES |
| --- | --- |
| 2000 to 10000 nM | NC(=O)c1ccc(C(=O)N[C@H]2C[C@H]3CC[C@@H](C2)N3c2ccc(C(=O)CN3CCCCC3)cn2)cc1NCC1CC1 [2-[(cyclopropylmethyl)amino]-N4-{8-[5-(piperidin-1-ylacetyl)pyridin-2-yl]-8-azabicyclo[3.2.1]oct-3-endo-yl}benzene-1,4-dicarboxamide] |
| < 500 nM | CCNc1cc(C(=O)N[C@H]2C[C@H]3CC[C@@H](C2)N3c2ccc(C(C)=O)cn2)ccc1C(N)=O [N4-[8-(5-acetylpyridin-2-yl)-8-azabicyclo[3.2.1]oct-3-endo-yl]-2-(ethylamino)benzene-1,4-dicarboxamide] |
| 1000 to 2000 nM | Cc1cnc(CNC(=O)c2ccc(N3[C@@H]4CC[C@H]3C[C@@H](NC(=O)c3ccc(C(N)=O)cc3)C4)nc2)cn1 [N-{8-[5-({[(5-methylpyrazin-2-yl)methyl]amino}carbonyl)pyridin-2-yl]-8-azabicyclo[3.2.1]oct-3-endo-yl}benzene-1,4-dicarboxamide] |
| 1000 to 2000 nM | COc1cccc(C(=O)N[C@H]2C[C@H]3CC[C@@H](C2)N3c2ccc(C(=O)Nc3ccc(C4CCN(C)CC4)cc3)cn2)c1C [6-[3-endo-({[2-methyl-3-(methyloxy)phenyl]carbonyl}amino)-8-azabicyclo[3.2.1]oct-8-yl]-N-[4-(1-methylpiperidin-4-yl)phenyl]pyridine-3-carboxamide] |
| 500 to 999 nM | COc1cc(C(=O)N[C@H]2C[C@H]3CC[C@@H](C2)N3c2ccc(C(N)=O)cn2)ccc1CO [6-[3-endo-({[4-(hydroxymethyl)-3-(methyloxy)phenyl]carbonyl}amino)-8-azabicyclo[3.2.1]oct-8-yl]pyridine-3-carboxamide] |
| < 500 nM | CCN1CC[C@H](NC(=O)c2ccc(N3C4CCC3CC(NC(=O)c3cc(C)c(C(N)=O)cc3C)C4)nc2)C1 (stereo partly drawn) [N-{8-[5-({[(3S)-1-ethylpyrrolidin-3-yl]amino}carbonyl)pyridin-2-yl]-8-azabicyclo[3.2.1]oct-3-endo-yl}-2,5-dimethylbenzene-1,4-dicarboxamide] |
| < 500 nM | CC(=O)c1ccc(N2[C@@H]3CC[C@H]2C[C@@H](NC(=O)c2ccc(C(N)=O)c(NCCOC(C)C)c2)C3)nc1 [N4-[8-(5-acetylpyridin-2-yl)-8-azabicyclo[3.2.1]oct-3-endo-yl]-2-({2-[(1-methylethyl)oxy]ethyl}amino)benzene-1,4-dicarboxamide] |
| < 500 nM | Cc1cc(C(=O)NC2CC3CCC(C2)N3c2ccc(C(=O)N[C@@H]3CCCN(C)C3)cn2)c(C)cc1C(N)=O (stereo partly drawn) [2,5-dimethyl-N-{8-[5-({[(3R)-1-methylpiperidin-3-yl]amino}carbonyl)pyridin-2-yl]-8-azabicyclo[3.2.1]oct-3-endo-yl}benzene-1,4-dicarboxamide] |
| < 500 nM | NC(=O)c1ccc(C(=O)N[C@H]2C[C@H]3CC[C@@H](C2)N3c2ccc(C(=O)C3CC3)cn2)cc1NC1CCCC1 |
| < 500 nM | CC[C@@H](C)Nc1cc(C(=O)NC2CC3CCC(C2)N3c2ccc(C(=O)C3CC3)cn2)c(Br)cc1C(N)=O (stereo partly drawn) [2-bromo-N-{8-[5-(cyclopropylcarbonyl)pyridin-2-yl]-8-azabicyclo[3.2.1]oct-3-endo-yl}-5-{[(1R)-1-methylpropyl]amino}benzene-1,4-dicarboxamide] |
| 500 to 999 nM | CCNC(=O)c1ccc(N2[C@@H]3CC[C@H]2C[C@@H](NC(=O)c2cccc(OC)c2C)C3)nc1 [N-ethyl-6-[3-endo-({[2-methyl-3-(methyloxy)phenyl]carbonyl}amino)-8-azabicyclo[3.2.1]oct-8-yl]pyridine-3-carboxamide] |
| < 500 nM | CC(=O)c1ccc(N2[C@@H]3CC[C@H]2C[C@@H](NC(=O)c2ccc(C(N)=O)c(NCC(F)(F)C(F)(F)F)c2)C3)nc1 [N4-[8-(5-acetylpyridin-2-yl)-8-azabicyclo[3.2.1]oct-3-endo-yl]-2-[(2,2,3,3,3-pentafluoropropyl)amino]benzene-1,4-dicarboxamide] |
| < 500 nM | CC(C)CCC(=O)c1ccc(N2[C@@H]3CC[C@H]2C[C@@H](NC(=O)c2ccc(C(N)=O)c(NCC4CC4)c2)C3)nc1 [2-[(cyclopropylmethyl)amino]-N4-{8-[5-(4-methylpentanoyl)pyridin-2-yl]-8-azabicyclo[3.2.1]oct-3-endo-yl}benzene-1,4-dicarboxamide] |
| < 500 nM | CC(=O)c1ccc(N2[C@@H]3CC[C@H]2C[C@@H](NC(=O)c2ccc(C(N)=O)c(NC4CCCC4)c2)C3)nc1 [N4-[8-(5-acetylpyridin-2-yl)-8-azabicyclo[3.2.1]oct-3-endo-yl]-2-(cyclopentylamino)benzene-1,4-dicarboxamide] |
| 2000 to 10000 nM | COc1cccc(C(=O)NC2CC3CCC(C2)N3c2ccc(C(=O)NCC3CCCO3)cn2)c1C (stereo not drawn) [6-[3-endo-({[2-methyl-3-(methyloxy)phenyl]carbonyl}amino)-8-azabicyclo[3.2.1]oct-8-yl]-N-(tetrahydrofuran-2-ylmethyl)pyridine-3-carboxamide] |
| < 500 nM | CC(=O)c1ccc(N2[C@@H]3CC[C@H]2C[C@@H](NC(=O)c2cc(NC4CCC(C(F)(F)F)CC4)c(C(N)=O)cc2C)C3)nc1 (stereo partly drawn) [N-[8-(5-acetylpyridin-2-yl)-8-azabicyclo[3.2.1]oct-3-endo-yl]-2-methyl-5-{[4-(trifluoromethyl)cyclohexyl]amino} benzene-1,4-dicarboxamide] |
| < 500 nM | CC[C@@H](C)Nc1cc(C(=O)NC2CC3CCC(C2)N3c2ccc(C(=O)C3CC3)cn2)ccc1C(N)=O (stereo partly drawn) [N4-{8-[5-(cyclopropylcarbonyl)pyridin-2-yl]-8-azabicyclo[3.2.1]oct-3-endo-yl}-2-{[(1R)-1-methylpropyl]amino}benzene-1,4-dicarboxamide] |
